# Calls of active or inactive are those of the source. No cut-off for these calls is given here.
# Legend:
# [1] = biological target: T1, 3',5'-cyclic-AMP phosphodiesterase 4D (Homo sapiens, UniProt Q08499); assay: Inhibition of full-length PDE4D2 (unknown origin) using FAM-cAMP as substrate preincubated with compound for 15 mins followed by substrate addition and measured after 30 mins by fluorescence polarization based IMAP assay
# [2] = Cytotoxicity against human HaCaT cells assessed as reduction in cell viability incubated for 24 hrs by CCK-8 assay; format: toxicity, cell-based
# RAW264.7 [3] = assay: Anti-inflammatory activity in mouse RAW264.7 cells assessed as inhibition of LPS-induced TNF-alpha production incubated for 24 hrs by ELISA; format: functional, cell-based; settings: RAW264.7, 24 h
# RAW264.7 [4] = assay: Anti-inflammatory activity in mouse RAW264.7 cells assessed as inhibition of LPS-induced IL-6 production incubated for 24 hrs by ELISA; format: functional, cell-based; settings: RAW264.7, 24 h
# [5] = Cytotoxicity against mouse RAW264.7 cells assessed as reduction in cell viability incubated for 24 hrs by CCK-8 assay; format: toxicity, cell-based
# HaCaT = assay: Anti-inflammatory activity in human HaCaT cells assessed as inhibition of M5-induced TNF-alpha production incubated for 24 hrs by ELISA; format: functional, cell-based
# RAW264.7 [6] = assay: Anti-inflammatory activity in mouse RAW264.7 cells assessed as inhibition of LPS-induced TNF-alpha production at 10 uM incubated for 24 hrs by ELISA relative to control; format: functional; parameters: scale not given: the % may be the effect or the level left
# [7] = biological target: T1, 3',5'-cyclic-AMP phosphodiesterase 4D; assay: Inhibition of full-length PDE4D2 (unknown origin) using FAM-cAMP as substrate at 1 uM preincubated with compound for 15 mins followed by substrate addition and measured after 30 mins by fluorescence polarization based IMAP assay relative to control; settings: time 45.0 min
# [8] = Half life in male ICR mouse at 10 mg/kg, po measured for 0.25 to 24 hrs by LC-MS/MS analysis; format: ADME, organism-based; settings: in vivo, time 0.25-24 hrs
# [9] = AUC (0 to infinity) in male ICR mouse at 5 mg/kg, iv measured for 0.083 to 24 hrs by LC-MS/MS analysis; format: ADME, organism-based; settings: in vivo, time 0.083-24 hrs
# Mus musculus [10] = assay: Anti-inflammatory activity against imiquimod-induced psoriasis in male Balb/c mouse model assessed as reduction in scales score at 0.3 to 1.2 % administration as ointment pretreated with IMQ for 4 hrs followed by compound addition once daily from day 2 to 8; format: functional, organism-based; settings: dose 0.3-1.2 %, time 2-8 day
# [11] = Apparent volume of distribution in male ICR mouse at 5 mg/kg, iv measured for 0.083 to 24 hrs by LC-MS/MS analysis; format: ADME, organism-based; settings: in vivo, time 0.083-24 hrs, read-out: Vz
# Mus musculus [12] = assay: Anti-inflammatory activity against imiquimod-induced psoriasis in male Balb/c mouse model assessed as increase in skin scales at 0.3 to 1.2 % administration as ointment pretreated with IMQ for 4 hrs followed by compound addition once daily from day 2 to 8 by H and E staining based microscopic analysis; format: functional, organism-based; settings: dose 0.3-1.2 %, time 2-8 day
# [13] = Drug absorption in suckling pig skin assessed as skin permeability by measuring steady state penetration rate administered topically as 1.2% ointment and measured upto 24 hrs by Franz diffusion cell system; format: ADME, tissue-based, Sus scrofa, Skin of body
# Mus musculus [14] = assay: Anti-inflammatory activity against imiquimod-induced psoriasis in male Balb/c mouse model assessed as inhibition of IL-6 expression in skin at 0.3 to 1.2 % administration as ointment pretreated with IMQ for 4 hrs followed by compound addition once daily from day 2 to 8 by ELISA; format: functional, organism-based; settings: dose 0.3-1.2 %, time 2-8 day
# Mus musculus [15] = assay: Anti-inflammatory activity against imiquimod-induced psoriasis in male Balb/c mouse model assessed as reduction in erythema score at 0.3 to 1.2 % administration as ointment pretreated with IMQ for 4 hrs followed by compound addition once daily from day 2 to 8; format: functional, organism-based; settings: dose 0.3-1.2 %, time 2-8 day
# [16] = AUC (0 to t) in male ICR mouse at 5 mg/kg, iv measured for 0.083 to 24 hrs by LC-MS/MS analysis; format: ADME, organism-based; settings: in vivo, time 0.083-24 hrs
# [17] = Cmax in male ICR mouse at 10 mg/kg, po measured for 0.25 to 24 hrs by LC-MS/MS analysis; format: ADME, organism-based; settings: in vivo, time 0.25-24 hrs
# [18] = Half life in male ICR mouse at 5 mg/kg, iv measured for 0.083 to 24 hrs by LC-MS/MS analysis; format: ADME, organism-based; settings: in vivo, time 0.083-24 hrs
# [19] = AUC (0 to infinity) in male ICR mouse at 10 mg/kg, po measured for 0.25 to 24 hrs by LC-MS/MS analysis; format: ADME, organism-based; settings: in vivo, time 0.25-24 hrs
# [20] = Oral bioavailability in male ICR mouse at 10 mg/kg measured for 0.25 to 24 hrs by LC-MS/MS analysis; format: ADME, organism-based; settings: in vivo, time 0.25-24 hrs
# Mus musculus [21] = assay: Anti-inflammatory activity against imiquimod-induced psoriasis in male Balb/c mouse model assessed as reduction in spleen weight at 0.3 to 1.2 % administration as ointment pretreated with IMQ for 4 hrs followed by compound addition once daily from day 2 to 8; format: functional, organism-based; settings: dose 0.3-1.2 %, time 2-8 day
# Mus musculus [22] = assay: Anti-inflammatory activity against imiquimod-induced psoriasis in male Balb/c mouse model assessed as increase in skin thickness at 0.3 to 1.2 % administration as ointment pretreated with IMQ for 4 hrs followed by compound addition once daily from day 2 to 8 by H and E staining based microscopic analysis; format: functional, organism-based; settings: dose 0.3-1.2 %, time 2-8 day
# [23] = AUC (0 to t) in male ICR mouse at 10 mg/kg, po measured for 0.25 to 24 hrs by LC-MS/MS analysis; format: ADME, organism-based; settings: in vivo, time 0.25-24 hrs
# [24] = Clearance in male ICR mouse at 5 mg/kg, iv measured for 0.083 to 24 hrs by LC-MS/MS analysis; format: ADME, organism-based; settings: in vivo, time 0.083-24 hrs
# [25] = Tmax in male ICR mouse at 10 mg/kg, po measured for 0.25 to 24 hrs by LC-MS/MS analysis; format: ADME, organism-based; settings: in vivo, time 0.25-24 hrs
# Mus musculus [26] = assay: Anti-inflammatory activity against imiquimod-induced psoriasis in male Balb/c mouse model assessed as reduction in thickness score at 0.3 to 1.2 % administration as ointment pretreated with IMQ for 4 hrs followed by compound addition once daily from day 2 to 8; format: functional, organism-based; settings: dose 0.3-1.2 %, time 2-8 day
# Mus musculus [27] = species on record: Mus musculus; assay: Anti-inflammatory activity against imiquimod-induced psoriasis in male Balb/c mouse model assessed as reduction in skin lesions pretreated with IMQ for 4 hrs followed by compound addition once daily from day 2 to 8; format: functional, organism-based; settings: dose 0.3-1.2 %, time 2-8 day
# Mus musculus [28] = assay: Anti-inflammatory activity against imiquimod-induced psoriasis in male Balb/c mouse model assessed as reduction in immune cell infiltration at 0.3 to 1.2 % administration as ointment pretreated with IMQ for 4 hrs followed by compound addition once daily from day 2 to 8 by H and E staining based microscopic analysis; format: functional, organism-based; settings: dose 0.3-1.2 %, time 2-8 day
# Mus musculus [29] = assay: Anti-inflammatory activity against imiquimod-induced psoriasis in male Balb/c mouse model assessed as reduction in Ki67+ cells in back skin at 0.3 to 1.2 % administration as ointment pretreated with IMQ for 4 hrs followed by compound addition once daily from day 2 to 8 by Immunohistochemistry based microscopic analysis; format: functional, organism-based; settings: dose 0.3-1.2 %, time 2-8 day
# Mus musculus [30] = assay: Anti-inflammatory activity against imiquimod-induced psoriasis in male Balb/c mouse model assessed as inhibition of TNF-alpha expression in skin at 0.3 to 1.2 % administration as ointment pretreated with IMQ for 4 hrs followed by compound addition once daily from day 2 to 8 by ELISA; format: functional, organism-based; settings: dose 0.3-1.2 %, time 2-8 day
# [31] = Drug absorption in suckling pig skin assessed as skin permeability by measuring transdermal amount per unit area administered topically as 1.2% ointment and measured upto 24 hrs by Franz diffusion cell system; format: ADME, tissue-based, Sus scrofa, Skin of body
# [32] = Initial plasma concentration in male ICR mouse at 5 mg/kg, iv measured for 0.083 to 24 hrs by LC-MS/MS analysis; format: ADME, organism-based; settings: time 0.083-24 hrs
# T1 sequence (Q08499 whole entry): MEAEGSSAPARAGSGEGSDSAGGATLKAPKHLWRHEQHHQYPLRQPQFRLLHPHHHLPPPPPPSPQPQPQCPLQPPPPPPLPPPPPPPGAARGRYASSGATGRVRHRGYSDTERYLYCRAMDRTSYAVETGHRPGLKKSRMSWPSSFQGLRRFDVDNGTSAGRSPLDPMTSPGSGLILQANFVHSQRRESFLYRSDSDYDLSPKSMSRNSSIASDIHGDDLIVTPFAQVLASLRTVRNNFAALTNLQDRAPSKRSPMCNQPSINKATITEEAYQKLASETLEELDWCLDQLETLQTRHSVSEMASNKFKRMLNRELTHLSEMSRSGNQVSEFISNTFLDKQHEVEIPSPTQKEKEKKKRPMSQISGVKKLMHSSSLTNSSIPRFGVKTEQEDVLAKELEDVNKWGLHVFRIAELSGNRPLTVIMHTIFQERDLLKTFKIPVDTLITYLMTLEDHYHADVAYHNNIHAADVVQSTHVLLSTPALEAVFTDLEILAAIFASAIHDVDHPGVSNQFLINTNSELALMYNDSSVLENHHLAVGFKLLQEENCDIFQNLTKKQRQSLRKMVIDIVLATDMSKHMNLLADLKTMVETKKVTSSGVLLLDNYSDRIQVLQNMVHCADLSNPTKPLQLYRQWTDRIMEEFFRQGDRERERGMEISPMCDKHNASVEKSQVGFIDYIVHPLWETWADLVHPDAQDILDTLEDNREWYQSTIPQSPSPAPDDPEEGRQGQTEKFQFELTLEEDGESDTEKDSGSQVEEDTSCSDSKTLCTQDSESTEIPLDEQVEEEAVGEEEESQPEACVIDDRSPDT
structure (smiles),measurement,setting,value
O=C(NCc1ncccn1)c1c[nH]c(-c2ccc(OC(F)F)c(OCC3CC3)c2)n1,IC50,[1],0.0005 µM
same,CC50 at 24 h,[2],> 50 µM
same,IC50,RAW264.7 [3],27.3 µM
same,IC50,RAW264.7 [4],38.4 µM
same,CC50 at 24 h,[5],> 50 µM
same,IC50,HaCaT,19.3 µM
O=C(NCc1c(F)cccc1F)c1coc(-c2ccc(OC(F)F)c(OCC3CC3)c2)n1,Activity,RAW264.7 [6],9.32%
same,IC50,[1],0.0273 µM
O=C(NCc1ccc(F)c(F)c1)c1c[nH]c(-c2ccc(OC(F)F)c(OCC3CC3)c2)n1,Activity,RAW264.7 [6],12.03%
same,IC50,[1],0.0149 µM
O=C(NCc1c(F)cccc1F)c1c[nH]c(-c2ccc(OC(F)F)c(OCC3CC3)c2)n1,Activity,RAW264.7 [6],13.88%
same,IC50,[1],0.0159 µM
O=C(Nc1nccs1)c1c[nH]c(-c2ccc(OC(F)F)c(OCC3CC3)c2)n1,IC50,RAW264.7 [3],59.9 µM
same,inhibition,[7],74.3%
O=C(NCc1cc(F)ccc1F)c1c[nH]c(-c2ccc(OC(F)F)c(OCC3CC3)c2)n1,half-life,[8],2.21 h
same,AUC(0-inf),[9],5020 ng·h/mL
same,Activity,Mus musculus [10],Active
same,Vd,[11],1.35 L/kg
same,CC50 at 24 h,[2],> 50 µM
same,Activity,Mus musculus [12],Active
same,Jss,[13],3.45 ug/cm2.hr
same,Activity,Mus musculus [14],Active
same,Activity,Mus musculus [15],Active
same,AUC(0-t),[16],5010 ng·h/mL
same,IC50,RAW264.7 [3],21.4 µM
same,IC50,RAW264.7 [4],29.2 µM
same,Cmax,[17],810 ng/mL
same,CC50 at 24 h,[5],> 50 µM
same,half-life,[18],0.94 h
same,AUC(0-inf),[19],3930 ng·h/mL
same,bioavailability,[20],35.6%
same,Activity,Mus musculus [21],Active
same,Activity,Mus musculus [22],Active
same,AUC(0-t),[23],3570 ng·h/mL
same,clearance,[24],16.6 mL/min/kg
same,Tmax,[25],1 h
same,Activity,Mus musculus [26],Active
same,IC50,HaCaT,22.9 µM
same,Activity,Mus musculus [27],Dose-dependent-effect
same,Activity,Mus musculus [28],Active
same,Activity,Mus musculus [29],Active
same,Activity,Mus musculus [30],Active
same,Drug absorption,[31],81.9 microg/cm2
same,C0,[32],7320 ng/mL
O=C(NCc1ccc(F)cc1F)c1c[nH]c(-c2ccc(OC(F)F)c(OCC3CC3)c2)n1,Activity,RAW264.7 [6],5.16%
same,IC50,[1],0.00474 µM
O=C(NCc1ncccn1)c1coc(-c2ccc(OC(F)F)c(OCC3CC3)c2)n1,Activity,RAW264.7 [6],4.98%
same,IC50,[1],0.0182 µM
O=C(NCC1CCOCC1)c1c[nH]c(-c2ccc(OC(F)F)c(OCC3CC3)c2)n1,Activity,RAW264.7 [6],24.03%
same,inhibition,[7],93.9%
O=C(NCc1ccc(F)cc1F)c1coc(-c2ccc(OC(F)F)c(OCC3CC3)c2)n1,Activity,RAW264.7 [6],18.06%
same,inhibition,[7],67.6%
O=C(O)c1coc(-c2ccc(OC(F)F)c(OCC3CC3)c2)n1,Activity,RAW264.7 [6],10.47%
same,inhibition,[7],46.2%
O=C(Nc1ccc2[nH]ccc2c1)c1c[nH]c(-c2ccc(OC(F)F)c(OCC3CC3)c2)n1,Activity,RAW264.7 [6],21.36%
same,inhibition,[7],83.5%
